pIC50: −log10 of the molar value. Where “and” joins values, the source holds several entries; their conditions need not be identical. Identical values can stand only once.

The target of the first assay is T1, factor D (Homo sapiens, UniProt P00746).
T1 construct: made in house; host or cells: E. coli
T1 sequence (P00746 26-253): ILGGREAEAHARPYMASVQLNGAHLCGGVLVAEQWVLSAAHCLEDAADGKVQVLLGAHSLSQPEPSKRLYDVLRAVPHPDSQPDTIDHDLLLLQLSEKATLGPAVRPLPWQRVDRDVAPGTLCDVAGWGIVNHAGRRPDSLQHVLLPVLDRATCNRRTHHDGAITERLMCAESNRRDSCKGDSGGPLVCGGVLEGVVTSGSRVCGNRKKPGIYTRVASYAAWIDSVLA
In words: factor D inhibition assay of Biological Example 2.
Settings: not given
Type of assay: biochemical.
In turn, `NCc1cccc(-c2cccc(CCc3ccccc3CC(=O)O)c2)c1` [Example 16-D, 2-(2-(2-(3′-(Aminomethyl)-[1,1′-biphenyl]-3-yl)ethyl)phenyl)acetic acid] showed a pIC50 of 6.33.

For `CCC(=O)Nc1cc(C(=O)Nc2ccccc2CC(=O)O)cc(-c2cc(F)cc(CN)c2)c1` [Example 96-D, 2-(2-(3′-(Aminomethyl)-5′-fluoro-5-propionamido-[1,1′-biphenyl]-3-ylcarboxamido)phenyl)acetic acid], the pIC50 was 7.68.

Compound `NCc1cc(F)cc(-c2cc(C(=O)O)cc(C(=O)Nc3ccccc3CC(=O)O)c2)c1` [Example 95-B, 3′-(Aminomethyl)-5-((2-(carboxymethyl)phenyl)carbamoyl)-5′-fluoro-[1,1′-biphenyl]-3-carboxylic acid] gave a pIC50 of 5.65.

As to `NCc1cccc(-c2cc(C(=O)Nc3ccccc3CC(=O)O)nc(-c3cccc(CN)c3)c2)c1` [Example 42, 2-(2-(4,6-bis(3-(Aminomethyl)phenyl)picolinamido)phenyl)acetic acid], the pIC50 is 7.89.

For the compound `N[C@H](CO)c1cccc(-c2cc(COc3ccccc3CC(=O)O)cc(C(O)C(F)(F)F)c2)c1` (single isomer, unassigned) [116-G b) (tr = 3.4 min)], the pIC50 was 8.05.

`CN(C)c1cc(COc2ccccc2CC(=O)O)cc(-c2cccc([C@H](N)CO)c2)c1` [Example 132, (S)-2-(2-((3′-(1-Amino-2-hydroxyethyl)-5-(dimethylamino)-[1,1′-biphenyl]-3-yl)methoxy)phenyl)acetic acid] had a pIC50 of 7.74.

The compound `C[C@@H](N)c1cccc(-c2cc(COc3ccccc3CC(=O)O)c(F)c(NCC3CCCO3)c2)c1F` (mixture of isomers) [Example 221 b), 2-(2-((3′-((R)-1-aminoethyl)-2′,4-difluoro-5-(((tetrahydrofuran-2-yl)methyl)amino)-[1,1′-biphenyl]-3-yl)methoxy)phenyl)acetic acid] showed a pIC50 of 8.40.

Compound `NCc1cccc(-c2ccc3c(c2)C(Oc2ccccc2CC(=O)O)CCC3)c1` (single isomer, unassigned) [175 b) (tr = 4.1 min), (+) or (−)-(2-((7-(3-(aminomethyl)phenyl)-1,2,3,4-tetrahydronaphthalen-1-yl)oxy)phenyl)acetic acid] gave a pIC50 of 8.52.

Compound `N[C@H](CC(F)(F)F)c1cccc(-c2cccc(COc3ccccc3CC(=O)O)c2)c1` [Example 196-H] had a pIC50 of 5.93.

Consider `N[C@H](CO)c1cccc(-c2cc(COc3ccccc3CC(=O)O)cc(OCC3CC3)c2)c1` [Example 147-B, (S)-2-(2-((3′-(1-Amino-2-hydroxyethyl)-5-(cyclopropylmethoxy)-[1,1′-biphenyl]-3-yl)methoxy)phenyl)acetic acid], for which the pIC50 is 8.30.

Take `C[C@@H](N)c1cccc(-c2cccc(COc3ccccc3CC(=O)O)c2)c1Cl` [Example 142-A]: the pIC50 was 6.46.

For the compound `NCc1cc(F)cc(-c2cccc(COc3ccccc3CC(=O)O)c2)c1` [Example 187, 2-(2-((3′-(Aminomethyl)-5′-fluoro-[1,1′-biphenyl]-3-yl)methoxy)phenyl)acetic acid], the pIC50 is 6.76.

Turning to `N[C@@H](CCO)c1cccc(-c2cccc(C(=O)Nc3ccccc3CC(=O)O)c2)c1` [Example 89, (S)-2-(2-(3′-(1-Amino-3-hydroxypropyl)-[1,1′-biphenyl]-3-ylcarboxamido)phenyl)acetic acid], the pIC50 is 5.28.

`COCCNc1cc(C(=O)Nc2ccccc2CC(=O)O)cc(-c2cc(F)cc(CN)c2)c1` [Example 14-E] had a pIC50 of 8.00.

`NCc1nccc(-c2cccc(COc3ccccc3CC(=O)O)c2)c1F` [Example 142-I] showed a pIC50 of 8.70.

As to `O=C(O)Cc1ccccc1OCc1cccc(-c2cccc(-c3nnn[nH]3)c2)c1` [Example 191, 2-(2-((3′-(1H-Tetrazol-5-yl)-[1,1′-biphenyl]-3-yl)methoxy)phenyl)acetic acid], the pIC50 was 4.69 and 4.68.

Compound `NC(CF)c1cccc(-c2cccc(COc3ccccc3CC(=O)O)c2)c1` (single isomer, unassigned; (-)) [Example 190-B (−), (−)-2-(2-((3′-(1-amino-2-fluoroethyl)-[1, 1′-biphenyl]-3-yl)methoxy)phenyl)acetic acid] gave a pIC50 of 6.67.

`C[C@H](N)c1cccc(-c2cc(COc3ccccc3CC(=O)O)cc(OC[C@H]3CCCO3)c2)c1F` [Example 233, 2-(2-((3′-((S)-1-aminoethyl)-2′-fluoro-5-(((R)-tetrahydrofuran-2-yl)methoxy)-[1,1′-biphenyl]-3-yl)methoxy)phenyl)acetic acid] had a pIC50 of 8.40.

The next assay addresses T1, factor D. Put plainly: Human Complement Factor D ELISA Assay. In kind it is biochemical. The conditions noted are these: tested using the assay of Biological Example 1 (ELISA, Ba product quantified); read-out: activity against factor D. In general terms: An ELISA detects its analyte on a solid surface through an enzyme-linked reagent.
Regarding `CC[N+]1=C(/C=C/C=C/C=C2/N(CCCCCC(=O)NC[C@@]3(F)C[C@@H](C(=O)NCc4cccc(Cl)c4F)N(C(=O)Nc4cn(C(N)=O)c5ccccc45)C3)c3ccc(S(=O)(=O)O)cc3C2(C)C)C(C)(C)c2cc(S(=O)(=O)O)ccc21` [Biological Example 2.2, 2-((1E,3E,5E)-5-(1-(6-((((3S,5S)-1-((1-carbamoyl-1H-indol-3-yl)carbamoyl)-5-((3-chloro-2-fluorobenzyl)carbamoyl)-3-fluoropyrrolidin-3-yl)methyl)amino)-6-oxohexyl)-3,3-dimethyl-5-sulfoindolin-2-ylidene)penta-1,3-dien-1-yl)-1-ethyl-3,3-dimethyl-5-sulfo-3H-indol-1-ium], the pIC50 is 6.16.

The record behind these values is patent US20160145247A1, “Aminomethyl-Biaryl Derivatives Complement Factor D inhibitors and uses thereof” (NOVARTIS AG, priority 2013, published 2016).
